Laboratory results from patent publication US20260306460A1, “COMPOSITION FOR REMOVING AND INHIBITING SENESCENT CELLS, AND USES THEREOF” (LIFECEUTIX CO., LTD., priority 2023, published 2026).

Legend:
Splnocyte = settings: cited from earlier work
[1] = system: obesity-induced aged C57BL6J mice; assay: Anxiety, depression, lethargy (open field test) in obesity-aged mice, Example 23-4, Table 44; assay type: in vivo, mouse; settings: obesity-aged mice
Procedure: 15-week-old male C57BL6J mice (The Jackson Laboratory) were induced to obesity by a high-fat diet using the same method as in Example 9-1 WO2023-085787 A1. After acclimation to the experimental environment for one week, the mice were randomly assigned to experimental and control groups. […] LX-3002 was mixed in distilled water with 4% DMSO, 30% PEG300, and 5% Tween80 and administered orally at a concentration of 10 mg/kg daily for 21 days. LX-5701 was mixed in PBS and administered orally at a concentration of 360 mg/kg daily for 21 days. LX-6807 was mixed in saline and administered intraperitoneally at a concentration of 1 mg/kg daily for 21 days. The control group received only the solution in the same volume. After the end of drug administration, the methods described in each example below were performed.
It was determined that anxiety and depression caused by obesity are not causally related to increased body weight, but rather are caused by the accumulation of senescent cells. Accordingly, an activity assessment (open field test) was performed using the same method as in Example 7-7 of WO2023-085787 A1 to analyze lethargy caused by anxiety and depression caused by obesity in mice. The table below quantitatively represents activity, a criterion for assessing lethargy due to anxiety and depression, under conditions in which aging was induced by obesity and the test compound was not administered or was administered. The activity assessment after obesity-induced aging was calculated as 100% and compared with the activity assessment after test compound treatment.

senescent human cells = assay: Viability of doxorubicin-induced senescent human cells (CellTiter-Glo), Example 11; assay type: cell-based
Procedure: Cells in which senescence was induced by treatment with doxorubicin were treated with the test compound at designated concentrations and measured using the CellTiter-Glo Luminescent Cell Viability Assay (Promega).

[2] = system: proliferating foreskin cells; assay: Survival of proliferating human cells treated with supernatant (secreted fluid) from death-induced cells, Example 13; assay type: cell-based; settings: 3 days; for viability at 30 µM: Homo sapiens, 72 h
Procedure: (§1) After 3 days, cell viability was measured using CellTiter-Glo Luminescent Cell Viability Assay (Promega) or light microscopy.
After treating cells with the test compound at a high concentration that induces the death of most cells in both non-senescence-induced and senescence-induced cells, the cells were washed three times with PBS to remove the test compound, and replaced with fresh medium and cultured for an additional 3 hours at the time when the compound has entered into the cell but has not yet induced cell death (approximately 1 to 3 hours after compound treatment). During this additional culture, by checking with an optical microscope, etc., the medium supernatants containing secreted fluid from normally proliferating and senescent cells in which cell death was induced were obtained. The obtained medium supernatant was replaced with the medium of normally proliferating and senescent cells, respectively, and cell survival rate was measured after 3 days.

senescent foreskin cells = assay: Survival of senescent human cells treated with supernatant (secreted fluid) from death-induced cells, Example 13; assay type: cell-based; settings: senescent treated cells, 3 days; for viability at 30 µM: Homo sapiens, 72 h
[3] = system: HMGN1 secreted from senescent A549 cells; assay: HMGN1 secretion (ELISA) from senescent A549 cancer cells, Example 12; assay type: cell-based, human; settings: senescent untreated = 100%; 30 μM; 90 μM for LX-305, 905, 1302, 1601, 1603, 2003, 2702, 2901, 3106; 270 μM for LX-1103, 2005, 2007;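 also: A549 cells made senescent by doxorubicin exposure, with DMSO-treated cells serving as the non-senescent control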
Procedure: (§2) Cells were treated with doxorubicin or control (DMSO) and cultured.

senescent A549 cells = assay: Viability of senescent A549 cancer cells (CellTiter-Glo), Example 12; assay type: cell-based, human; settings: Homo sapiens, A549, 0 μM = 100, read-out: Survival
Procedure: as §2
Cancer cells in which aging was induced by treatment with doxorubicin were treated with the test compound at designated concentrations and measured using the CellTiter-Glo Luminescent Cell Viability Assay (Promega).

[4] = system: non-senescent proliferating human cells; assay: Effect on non-senescent (proliferating) human cells; assay type: cell-based; settings: normally proliferating foreskin cells; 30 μM, 3 days
Source text: Based on the results of Example 10 of WO2023-085787 A1, compounds that induce the death of senescent cells through a mechanism similar to LX-112, unlike existing senescent cell removers such as ABT-263, were screened based on HMGN1. […] The following test compounds were synthesized by and purchased from Medchemexpress, Selleckchem, Cayman, Medkoo, Sigma, Molport, Enzo, TCI, Santa Cruz, REONSIMI, Abcam, Alfa Aesar, APExBIO, BOCSCI, Merck, Thermo Fisher Scientific, R&D Systems, ChemFaces, Aobious, etc. […] In cells in which senescence was not induced by treatment with the control group (DMSO), the amount of HMGN1 above the effective value (sensitivity: 35 pg/ml), analysis limit, was not detected in both untreated and treated conditions with the test compound. On the other hand, in cells where senescence was induced by treatment with doxorubicin, the amount of HMGN1 was measured at 80 to 90 pg/ml. […]
as §1
Using the same method as Example 11, compounds that induce senescent cell death through a mechanism similar to that of LX-112 (ethaselen (1,2-[bis(1,2-benzisoselenazolone-3 (2H)-ketone)]ethane)) were screened based on HMGN1 and others. […] On the other hand, in cells senescent with doxorubicin, an amount of HMGN1 of […] was measured. […]

[5] = system: naturally aged C57BL6J mice; assay: Geriatric depression and anxiety in aged mice, Example 21-8; assay type: in vivo, mouse; settings: aged mice
Source text: The amount of senescent-associated secretory factor (SASP) in serum and tissues collected from mice of Examples 21-5 and 21-6 was reduced by treatment with LX-5701, LX-2101, or LX-2102. It was confirmed that removing senescent cells, which increase with aging in mice, and effectively reducing the amount of senescent-associated secretory factor (SASP) can improve symptoms of geriatric depression and anxiety.

[6] = supernatant from death-induced proliferating cells
[7] = supernatant from death-induced senescent cells

Structure (SMILES): CC(O)[C@@H]1NC(=O)COCCOCCNC(=O)[C@H](C(C)O)NC(=O)N[C@@H](C(C)O)C(=O)NNC1=O (stereo partly drawn) [Cyclic compound 1]
- Splnocyte proliferation recovery (Splnocyte): Splnocyte proliferation recovery 91%

Structure (SMILES): CC(C)c1onc(C(=O)N2CCN(C(c3ccccc3)c3ccccc3)CC2)c1[N+](=O)[O-] [LX-401]
- geriatric depression [1]: similarly improving geriatric depression
- viability at 1.1 µM (senescent human cells; Homo sapiens, 1.1 μM, 0 μM = 100, read-out: Survival): 20.4%
- viability at […] (senescent human cells; Homo sapiens, 3.3 μM, 0 μM = 100, read-out: Survival): 12.4%
- viability at 10 µM (senescent human cells; Homo sapiens, 10 μM, 0 μM = 100, read-out: Survival): 10.6%
- viability at 30 µM (senescent human cells; Homo sapiens, 30 μM, 0 μM = 100, read-out: Survival): 7.8%
- induced death of cells (senescent human cells; senescent foreskin cells, 30 μM, 3 days): induced the death of most cells
- viability at 30 µM [2, 6]: 88.1%
- viability at 30 µM [2, 7]: 95.1%
- Survival ([2]; supernatant from No Cells): 97.9 (±7.2) %
- viability at 30 µM (senescent foreskin cells; [6]): 48.2%
- viability at 30 µM (senescent foreskin cells; [7]): 42.2%
- Survival (senescent foreskin cells; supernatant from No Cells): 101.1 (±5.5) %
- HMGN1 [3]: 277%
- viability at 1.1 µM (senescent A549 cells; 1.1 μM): 89.7%
- viability at […] (senescent A549 cells; 3.3 μM): 68.6%
- viability at 10 µM (senescent A549 cells; 10 μM): 42.1%
- viability at 30 µM (senescent A549 cells; 30 μM): 16.8%
- induced death of cells [4]: induced the death of most cells
- amount of SASP, p16, SA-β-gal, lipofuscin [5]: reduced
- symptoms of geriatric depression and anxiety [5]: improved
